Literature values as cited in patent US20120309684A1, “CONJUGATES FOR DELIVERY OF BIOLOGICALLY ACTIVE COMPOUNDS” (ISIS INNOVATION LIMITED, priority 2009, published 2012).

Legend:
[1] = test system: cardiac compared with skeletal muscle
dystrophin protein = details: seven weekly doses at 100 mg/kg, systemic intravenous

Substance: ASSLNIA (Sequence for inclusion in target-delivery peptide) [MSP]
- lower binding affinity for cardiac compared with skeletal muscle [1]: 2-3 fold

Substance: GGCCAAACCTCGGCTTACCTGAAAT (all phosphorodiamidate morpholino (PMO); Tested constructs carry cell-penetrating peptides (B, MSP) conjugated to PMO)
- restoration of dystrophin protein with naked PMO (dystrophin protein): moderate restoration
